CC[C@H](C)C(=O)O[C@H]1C[C@H](O)C=C2C=C[C@H](C)[C@H](CC[C@@H](O)C[C@@H](O)CC(=O)[O-])[C@H]21.[Na+]
solubility (mole fraction) (in ethanol, 278 K): 0.0031
solubility (mole fraction) (in ethanol, 283 K): 0.00325
solubility (mole fraction) (in ethanol, 288 K): 0.00346
solubility (mole fraction) (in ethanol, 293 K): 0.00366
solubility (mole fraction) (in ethanol, 298 K): 0.00406
solubility (mole fraction) (in ethanol, 303 K): 0.00429
solubility (mole fraction) (in ethanol, 318 K): 0.00569
solubility (mole fraction) (in ethanol, 323 K): 0.00692
solubility (mole fraction) (in ethanol, 328 K): 0.00793
solubility (mole fraction) (in ethanol, 333 K): 0.00942
solubility (mole fraction) (in isopropanol, 278 K): 0.000605
solubility (mole fraction) (in isopropanol, 283 K): 0.000684
solubility (mole fraction) (in isopropanol, 288 K): 0.000753
solubility (mole fraction) (in isopropanol, 293 K): 0.000818
solubility (mole fraction) (in isopropanol, 298 K): 0.000903
solubility (mole fraction) (in isopropanol, 303 K): 0.00103
solubility (mole fraction) (in isopropanol, 308 K): 0.0011
solubility (mole fraction) (in isopropanol, 318 K): 0.00141
solubility (mole fraction) (in isopropanol, 322.9 K): 0.00164
solubility (mole fraction) (in isopropanol, 327.9 K): 0.0019
solubility (mole fraction) (in methanol, 277.8 K): 0.0225
solubility (mole fraction) (in methanol, 283 K): 0.0245
solubility (mole fraction) (in methanol, 287.9 K): 0.027
solubility (mole fraction) (in methanol, 293 K): 0.0301
solubility (mole fraction) (in methanol, 297.8 K): 0.0326
solubility (mole fraction) (in methanol, 302.9 K): 0.0373
solubility (mole fraction) (in methanol, 308 K): 0.0418
solubility (mole fraction) (in methanol, 313 K): 0.0492
solubility (mole fraction) (in methanol, 318 K): 0.0588
solubility (mole fraction) (in methanol, 324 K): 0.0687
solubility (mole fraction) (in n-butanol, 278.1 K): 0.00108
solubility (mole fraction) (in n-butanol, 283 K): 0.00118
solubility (mole fraction) (in n-butanol, 288 K): 0.00127
solubility (mole fraction) (in n-butanol, 293 K): 0.00144
solubility (mole fraction) (in n-butanol, 298 K): 0.00159
solubility (mole fraction) (in n-butanol, 303 K): 0.00178
solubility (mole fraction) (in n-butanol, 308 K): 0.00223
solubility (mole fraction) (in n-butanol, 313 K): 0.0029
solubility (mole fraction) (in n-butanol, 318.2 K): 0.00345
solubility (mole fraction) (in n-butanol, 323 K): 0.00408
solubility (mole fraction) (in n-butanol, 328 K): 0.00493
solubility (mole fraction) (in n-propanol, 278 K): 0.00208
solubility (mole fraction) (in n-propanol, 283 K): 0.00216
solubility (mole fraction) (in n-propanol, 288 K): 0.00219
solubility (mole fraction) (in n-propanol, 293 K): 0.00227
solubility (mole fraction) (in n-propanol, 298 K): 0.00238
solubility (mole fraction) (in n-propanol, 308 K): 0.00343
solubility (mole fraction) (in n-propanol, 313 K): 0.00449
solubility (mole fraction) (in n-propanol, 318 K): 0.0062
solubility (mole fraction) (in n-propanol, 328 K): 0.0122
solubility (mole fraction) (in n-propanol, 333 K): 0.0158
solubility (mole fraction) (in water, 278.4 K): 0.00911
solubility (mole fraction) (in water, 283 K): 0.0119
solubility (mole fraction) (in water, 288 K): 0.0162
solubility (mole fraction) (in water, 293 K): 0.0216
solubility (mole fraction) (in water, 298 K): 0.0285
solubility (mole fraction) (in water, 303 K): 0.0343
solubility (mole fraction) (in water, 313 K): 0.0477
solubility (mole fraction) (in water, 318 K): 0.0553
solubility (mole fraction) (in water, 323 K): 0.0642
solubility (mole fraction) (in water, 328 K): 0.0723
solubility (mole fraction) (in water, 333 K): 0.0841
